Results from patent US10131652B2, “Pyrimidinyloxy benzene derivatives as herbicides” (E. I. DU PONT DE NEMOURS AND COMPANY, priority 2014, dated 2018).
Read-outs that look alike come from different tables or passages of the source.

Columns and labels:
Assay in all cases: Test F pre-/postemergence plant response
Assay type in all cases: in vivo
[1] = tested on: arrowleaf sida (Sida rhombifolia); conditions: Sida rhombifolia, scale 0 to 100, read-out: Plant response rating, Arrowleaf Sida
Method in brief: (§1)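 Visual rating versus untreated controls, 0–100 scale (0 = no effect, 100 = complete control), taken 14–21 d after treatment in greenhouse. Pre: seeds planted in silt loam, soil treated. Post: plants 2–18 cm, 1–4 leaves. Compound formulated in non-phytotoxic solvent plus surfactant.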

[2] = tested on: sandbur (southern sandbur, Cenchrus echinatus); conditions: Cenchrus echinatus, scale 0 to 100, read-out: Plant response rating, Sandbur
Method in brief: as §1

[3] = tested on: green foxtail (Setaria viridis); conditions: Setaria viridis, pre-emergence, scale 0 to 100, read-out: Plant response rating, Foxtail, Green
Method in brief: as §1

[4] = tested on: Italian ryegrass (Lolium multiflorum); conditions: Lolium multiflorum, scale 0 to 100, read-out: Plant response rating, Ryegrass, Italian; for pest or weed control at 16 g/ha: 16 g ai/ha; for pest or weed control at 31 g/ha: 31 g ai/ha; for pest or weed control at 125 g/ha: 125 g ai/ha
Method in brief: as §1

kochia (Kochia scoparia) = conditions: Bassia scoparia, scale 0 to 100, read-out: Plant response rating, Kochia; for pest or weed control at 16 g/ha: 16 g ai/ha; for pest or weed control at 31 g/ha: 31 g ai/ha; for pest or weed control at 125 g/ha: 125 g ai/ha
Method in brief: as §1

[5] = tested on: nightshade (eastern black nightshade, Solanum ptycanthum); conditions: Solanum, pre-emergence, scale 0 to 100, read-out: Plant response rating, Nightshade
Method in brief: as §1

soybean (Glycine max) = conditions: Glycine max, scale 0 to 100, read-out: Plant response rating, Soybean
Method in brief: as §1

[6] = tested on: surinam grass (Brachiaria decumbens); conditions: Urochloa decumbens, pre-emergence, scale 0 to 100, read-out: Plant response rating, Surinam Grass
Method in brief: as §1

[7] = tested on: large (Lg) crabgrass (Digitaria sanguinalis); conditions: Digitaria sanguinalis, pre-emergence, scale 0 to 100, read-out: Plant response rating, Crabgrass, Large
Method in brief: as §1

[8] = post-emergence, 125 g ai/ha Postemergence
[9] = pre-emergence, 8 g ai/ha Preemergence
[10] = pre-emergence, 16 g ai/ha Preemergence
[11] = pre-emergence, 31 g ai/ha Preemergence
[12] = pre-emergence, 125 g ai/ha Preemergence
[13] = post-emergence, 8 g ai/ha Postemergence
[14] = post-emergence, 16 g ai/ha Postemergence
[15] = post-emergence, 31 g ai/ha Postemergence
[16] = post-emergence, 62 g ai/ha Postemergence
[17] = post-emergence, 62 g ai/ha, Postemergence

SMILES: FC(F)c1cc(-c2ccccc2Oc2ncc(Cl)cn2)on1 [Compound 53, 5-chloro-2-[2-[3-(difluoromethyl)-5-isoxazolyl]phenoxy]pyrimidine]
- pest or weed control at 125 g/ha [1, 8]: 98%
- pest or weed control at 8 g/ha [1, 9]: 0%
- pest or weed control at 16 g/ha [1, 10]: 20%
- pest or weed control at 31 g/ha [1, 11]: 65%
- pest or weed control at 62 g/ha ([1]; pre-emergence, 62 g ai/ha Preemergence): 100%
- pest or weed control at 125 g/ha [1, 12]: 100%
- pest or weed control at 8 g/ha [2, 13]: 0%
- pest or weed control at 16 g/ha [2, 14]: 0%
- pest or weed control at 31 g/ha [2, 15]: 0%
- pest or weed control at 62 g/ha [2, 16]: 5%
- pest or weed control at 125 g/ha [2, 8]: 10%
- pest or weed control at 8 g/ha [2, 9]: 0%
- pest or weed control at 16 g/ha [2, 10]: 0%
- pest or weed control at 31 g/ha [2, 11]: 0%
- pest or weed control at 125 g/ha [2, 12]: 0%
- pest or weed control at 62 g/ha ([2]; pre-emergence, Preemergence): 0%
- pest or weed control at 8 g/ha ([3]; 8 g ai/ha Preemergence): 0%
- pest or weed control at 16 g/ha ([3]; 16 g ai/ha, Preemergence): 0%
- pest or weed control at 31 g/ha ([3]; 31 g ai/ha, Preemergence): 0%
- pest or weed control at 125 g/ha ([3]; 125 g ai/ha, Preemergence): 90%
- pest or weed control at 62 g/ha ([3]; Preemergence): 20%
- pest or weed control at 8 g/ha [4, 13]: 0%
- pest or weed control at 16 g/ha ([4]; post-emergence, Postemergence): 0%
- pest or weed control at 31 g/ha ([4]; post-emergence, Postemergence): 0%
- pest or weed control at 62 g/ha [4, 17]: 5%
- pest or weed control at 125 g/ha ([4]; post-emergence, Postemergence): 0%
- pest or weed control at 8 g/ha [4, 9]: 0%
- pest or weed control at 16 g/ha ([4]; pre-emergence, Preemergence): 0%
- pest or weed control at 31 g/ha ([4]; pre-emergence, Preemergence): 0%
- pest or weed control at 125 g/ha ([4]; pre-emergence, Preemergence): 0%
- pest or weed control at 62 g/ha ([4]; pre-emergence, Preemergence): 0%
- pest or weed control at 8 g/ha (kochia (Kochia scoparia); [13]): 50%
- pest or weed control at 16 g/ha (kochia (Kochia scoparia); post-emergence, Postemergence): 60%
- pest or weed control at 31 g/ha (kochia (Kochia scoparia); post-emergence, Postemergence): 80%
- pest or weed control at 62 g/ha (kochia (Kochia scoparia); [17]): 95%
- pest or weed control at 125 g/ha (kochia (Kochia scoparia); post-emergence, Postemergence): 98%
- pest or weed control at 8 g/ha (kochia (Kochia scoparia); [9]): 0%
- pest or weed control at 16 g/ha (kochia (Kochia scoparia); pre-emergence, Preemergence): 0%
- pest or weed control at 31 g/ha (kochia (Kochia scoparia); pre-emergence, Preemergence): 20%
- pest or weed control at 125 g/ha (kochia (Kochia scoparia); pre-emergence, Preemergence): 100%
- pest or weed control at 62 g/ha (kochia (Kochia scoparia); pre-emergence, Preemergence): 50%
- pest or weed control at 16 g/ha ([5]; 16 g ai/ha Preemergence): 35%
- pest or weed control at 31 g/ha ([5]; 31 g ai/ha Preemergence): 90%
- pest or weed control at 125 g/ha ([5]; 125 g ai/ha Preemergence): 98%
- pest or weed control at 62 g/ha ([5]; Preemergence): 98%
- plant injury at 8 g/ha (soybean (Glycine max); [13]): 40%
- plant injury at 16 g/ha (soybean (Glycine max); [14]): 80%
- plant injury at 31 g/ha (soybean (Glycine max); [15]): 95%
- plant injury at 62 g/ha (soybean (Glycine max); [16]): 95%
- plant injury at 125 g/ha (soybean (Glycine max); [8]): 95%
- plant injury at 8 g/ha (soybean (Glycine max); [9]): 0%
- plant injury at 16 g/ha (soybean (Glycine max); [10]): 0%
- plant injury at 31 g/ha (soybean (Glycine max); [11]): 0%
- plant injury at 125 g/ha (soybean (Glycine max); [12]): 35%
- plant injury at 62 g/ha (soybean (Glycine max); pre-emergence, Preemergence): 0%
- pest or weed control at 8 g/ha ([6]; 8 g ai/ha Preemergence): 0%
- pest or weed control at 16 g/ha ([6]; 16 g ai/ha Preemergence): 0%
- pest or weed control at 31 g/ha ([6]; 31 g ai/ha Preemergence): 0%
- pest or weed control at 125 g/ha ([6]; 125 g ai/ha Preemergence): 0%
- pest or weed control at 62 g/ha ([6]; Preemergence): 0%
- pest or weed control at 8 g/ha ([7]; 8 g ai/ha Preemergence): 0%
- pest or weed control at 16 g/ha ([7]; 16 g ai/ha Preemergence): 0%
- pest or weed control at 31 g/ha ([7]; 31 g ai/ha Preemergence): 15%
- pest or weed control at 62 g/ha ([7]; 62 g ai/ha Preemergence): 80%
- pest or weed control at 125 g/ha ([7]; 125 g ai/ha Preemergence): 98%
